The text below walks through data of US20220185797A1, “SELECTIVE FOXO INHIBITORS FOR TREATMENT OF DIABETES AND OTHER DISORDERS RELATED TO IMPAIRED PANCREATIC FUNCTION” (THE TRUSTEES OF COLUMBIA UNIVERSITYIN THE CITY OF NEW YORK, priority 2019, published 2022).

Usually microsomal CLint stands for the rate of metabolic loss divided by the concentration. A high value points to rapid turnover. By IC50 is commonly meant the concentration that gives 50% inhibition. Broadly, the hepatocyte CLint is a measure of how fast metabolising enzymes remove a compound, apart from limits set by blood flow.

Like-named read-outs stand apart in the source and are kept apart here. Marks after values point to notes of the source that are not given here. Some results are limits rather than exact numbers.

The nature of series [1]: Metabolic stability in mouse microsomes. In kind it is in vitro ADME. To be noted: for microsomal CLint at 0.75 h, 0.3 μM: CD-1, liver microsomes, pH 7.4, in vitro intrinsic clearance; for microsomal CLint at 0.75 h, 0.3 μM / % remaining at 45 min: Mouse microsome, 0.3 μM; for metabolic stability compared with Compound 10 (Langlet et al.): mouse microsomes, and/or human hepatocytes, in words. Background: Liver microsomes are a subcellular fraction often used to study metabolism.

Series [2] has as its target T1, acetylcholinesterase (AChE) (Homo sapiens, UniProt P22303).
T1 construct: host or cells: CHO cells
The series can be described thus: biochemical. In kind it is biochemical. The method, then: The protein source was Human (recombinant) Expressed in CHO cells. The enzymatic activity was studied. The method employed was the detection of conversion of acetylthiocholine to thiocholine using DTNB. The substrate employed was Acetylthiocholine.
Enzyme and test compound were pre-incubated for 15 minutes at room temp before substrate addition. Acetylthiocholine and DTNB (5,5′-dithiobis-(2-nitrobenzoic acid)) were added and incubated at room temperature for 30 minutes. Signal was detected by measuring absorbance at 405 nm.
Percentage inhibition was calculated using the following formula: […]

Series [3] is described as follows: Metabolic stability in human hepatocytes. To be noted: for % remaining at 90 min: Human hepatocyte, 0.3 μM; for hepatocyte CLint at 1.5 h, 0.3 µM: human, hepatocytes (cryopreserved).
Procedure: An in vitro system comprising human Hepatocytes was employed. The incubation conditions and sampling time point of test article and positive control were as follows. Test articles (0.3 μM) and positive controls (verapamil) were incubated in a 0.2mL volume in 96-well format. Stock solutions were received at 10 mM in DMSO and the Final DMSO % in incubation was 0.01%. […] Incubation plates were shaken on an automated orbital shaker at 600 rpm. Incubation time points were: 0, 15, 30, 60, 90 minutes.
Following this pre-incubation period, the test compound (DMSO stock solution) was added to the incubation plate, which was mixed to initiate the incubation. The reaction plate was sampled (20 μL aliquot) at the pre-determined incubation time points, the sample quenched with 80 μL of Stop solution with internal standard (Acetonitrile with 0.1% (v/v) formic acid containing 100 nM labetalol, 20 nM imipramine, and 200 nM diclofenac) and the samples were mixed well. After quenching the reaction, the reaction mixture was centrifuged and the samples were submitted for LC-MS/MS analysis. Depletion rate (kdep, min^−1) and % compound remaining was calculated by peak area ratio (PAR) with internal standard at each time point relative to time 0 min. The estimation of Clint(Unscaled) (in μl/min/10^6 cells) was performed with the following equation:
For series [4], the target named is T2, human FOXO1 (Homo sapiens, UniProt Q12778).
T2 construct: expressed in transfected cells; host or cells: HEK293
The series can be described thus: FOXO1 transcriptional reporter assay (insulin response element firefly luciferase / Renilla) in HEK293 cells. In kind it is cell-based. To be noted: HEK293 cells transfected with human FOXO1, 24 hours, class combines IC50 and maximal inhibition; read-out: IC50 (active range). Here is the method:
The activities of FOXO1 inhibitors were determined by a transcriptional reporter assay. HEK293 cells were plated onto 96-well plates with moat at 20000 cells per well in Eagle's Minimum Essential Medium (EMEM) containing 1% fetal bovine serum, and incubated overnight at 37° C. and 5% CO2. […] Compounds were then added at varying final concentrations ranging from 50 μM to 1 nM, with final DMSO concentration of 0.5% in each well. Duplicate wells were included for each treatment condition. Cells were incubated for 24 hours at 37° C. and 5% CO2. Luciferase activities in each well were measured using Dual-Glo Luciferase Assay System (Promega) according to manufacturer's protocol and a plate reader suitable for luminescence detection. Firefly luciferase activity was divided by Renilla luciferase activity to calculate a ratio for each well. The ratio in wells containing cells transfected with all 3 plasmids listed above and receiving only DMSO without compound addition was set to 100%. The ratio in wells containing cells transfected with plasmids (1), (3), and 5 ng of pcDNA3.1 containing the open reading frame of red fluorescent protein (instead of human FOXO1) and treated with DMSO only was set to 0%. The ratio in each well receiving compound treatment was normalized and expressed as a percentage. Data were fit by 4-parameter logistic regression to determine IC50 and maximal inhibition values. Each compound was tested in a minimum of 2 independent experiments.
(A reporter such as luciferase makes a cellular process visible.)

A short description of series [5]: Metabolic stability in dog microsomes. The conditions noted are these: for % remaining at 45 min: Dog microsome; for metabolic stability compared with Compound 9 (Langlet et al.): dog and/or human microsomes, in words.
A short description of series [6]: Metabolic stability in human microsomes. The conditions noted are these: for % remaining at 45 min: Human microsome.
The mark [7] stands for this setting: Human recombinant AChE expressed in CHO cells, read-out: AChE Inhibitor IC50.
Where [8] appears, read: selectivity studies, Table 4, read-out: AChE IC50.

T2 sequence (Q12778 whole entry): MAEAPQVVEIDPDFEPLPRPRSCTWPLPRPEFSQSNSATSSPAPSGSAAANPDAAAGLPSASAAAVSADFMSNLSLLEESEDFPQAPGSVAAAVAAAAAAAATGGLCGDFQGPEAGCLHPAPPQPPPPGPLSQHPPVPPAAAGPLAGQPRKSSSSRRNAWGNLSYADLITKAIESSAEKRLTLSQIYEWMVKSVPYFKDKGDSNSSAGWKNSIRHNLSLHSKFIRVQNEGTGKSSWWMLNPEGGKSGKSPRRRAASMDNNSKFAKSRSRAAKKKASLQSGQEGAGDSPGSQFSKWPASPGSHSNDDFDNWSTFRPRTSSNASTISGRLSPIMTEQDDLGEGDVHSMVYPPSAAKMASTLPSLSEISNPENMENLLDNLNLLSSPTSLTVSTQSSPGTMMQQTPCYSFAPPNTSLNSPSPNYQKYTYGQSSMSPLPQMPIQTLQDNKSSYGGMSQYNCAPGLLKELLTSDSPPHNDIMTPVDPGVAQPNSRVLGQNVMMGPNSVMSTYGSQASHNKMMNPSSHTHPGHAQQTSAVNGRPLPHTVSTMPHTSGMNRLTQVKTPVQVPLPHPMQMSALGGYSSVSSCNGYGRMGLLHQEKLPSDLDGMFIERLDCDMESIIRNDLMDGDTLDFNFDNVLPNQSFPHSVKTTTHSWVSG
T1 sequence (P22303 32-614): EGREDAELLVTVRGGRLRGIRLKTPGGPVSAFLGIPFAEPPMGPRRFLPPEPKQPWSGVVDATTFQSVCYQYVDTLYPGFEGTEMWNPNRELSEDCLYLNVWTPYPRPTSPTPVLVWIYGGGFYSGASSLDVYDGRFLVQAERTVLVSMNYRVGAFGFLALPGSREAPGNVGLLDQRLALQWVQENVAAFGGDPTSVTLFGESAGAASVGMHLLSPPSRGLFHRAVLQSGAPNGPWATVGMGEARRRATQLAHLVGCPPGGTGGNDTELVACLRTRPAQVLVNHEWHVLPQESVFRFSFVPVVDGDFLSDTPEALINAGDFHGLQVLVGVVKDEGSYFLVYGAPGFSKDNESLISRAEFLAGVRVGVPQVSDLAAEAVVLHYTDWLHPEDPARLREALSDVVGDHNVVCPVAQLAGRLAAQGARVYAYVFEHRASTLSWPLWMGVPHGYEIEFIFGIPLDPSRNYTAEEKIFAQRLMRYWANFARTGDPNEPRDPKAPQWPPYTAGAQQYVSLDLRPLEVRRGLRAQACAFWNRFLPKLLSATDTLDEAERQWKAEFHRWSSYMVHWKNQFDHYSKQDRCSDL

Regarding `O=C(Nc1cc(-c2nc3ccccc3[nH]2)[nH]n1)c1ccc(N2CCOCC2)cc1` [Compound 67], in series [1], the microsomal CLint at 0.75 h, 0.3 μM was 52 µL/min/mg; the “% remaining at 45 min” value is 58%; the “metabolic stability compared with Compound 10 (Langlet et al.)” value is “significantly more stable”. Also, in series [2] (setting [7]), the 50% inhibitory concentration (IC50) was greater than 10000 nM.
Take `CN1CCN(c2ccc(C(=O)Nc3cc(-c4nc5ccccc5[nH]4)n[nH]3)cc2)CC1` [Compound 2, reference compound]: in series [1], the intrinsic clearance (microsomal CLint) at 0.75 h, 0.3 μM came to 206 µL/min/mg and the “% remaining at 45 min” value was 10%. The IC50 in series [2] (setting [8]) was determined as 1710 nM. Also, in series [3], the “% remaining at 90 min” value is 22% and the intrinsic metabolic clearance (hepatocyte CLint) at 1.5 h, 0.3 µM was determined as 18 µL/min/1e6 cells. For the same compound, the IC50 in series [4] was less than 50 nM.
For `COc1ccc(C(=O)N(C)c2cc(-c3nc4ccccc4[nH]3)n[nH]2)cc1Cl` [Compound 37], in series [2] (setting [8]), the IC50 was greater than 10000 nM.
Consider `COc1cc(C(=O)Nc2cc(-c3nc4ccccc4[nH]3)n[nH]2)ccc1Cl` [Compound 20], for which the figures for the “% remaining at 45 min” value in series [5] and in series [6] were 53% and 52%, respectively. Moreover, in series [5], the “metabolic stability compared with Compound 9 (Langlet et al.)” value is given as “significantly more stable”. For the same compound, the intrinsic metabolic clearance (microsomal CLint) at 0.75 h, 0.3 μM was 58 µL/min/mg in series [5] (dog, microsomes, pH 7.4) and 57 µL/min/mg in series [6] (human, microsomes, pH 7.4).
`O=C(Nc1cc(-c2nc3ccccc3[nH]2)n[nH]1)c1ccc(N2CCNCC2)cc1` [Compound 36]: in series [1], the microsomal CLint at 0.75 h, 0.3 μM was determined as 41 µL/min/mg; the “% remaining at 45 min” value stood at 68%; the “metabolic stability compared with Compound 10 (Langlet et al.)” value is on record as “significantly more stable”. Besides, the half-inhibitory concentration (IC50) in series [2] (setting [7]) was greater than 10000 nM. Besides, in series [3], the “% remaining at 90 min” value is 110 * % and the hepatocyte CLint at 1.5 h, 0.3 µM was 2.6 µL/min/1e6 cells.
Consider `CN1CCC(c2ccc(C(=O)Nc3cc(-c4nc5ccccc5[nH]4)n[nH]3)cc2)CC1` [Compound 42], for which, in series [4], the half-inhibitory concentration (IC50) is less than 1000 nM.
As to `CC(=O)Nc1cc(-c2nc3ccccc3[nH]2)n[nH]1` [Compound 29], in series [4], the IC50 was greater than 10000 nM.
As to `COc1ccc(C(=O)Nc2cc(-c3nc4cc(OC(F)(F)F)ccc4[nH]3)[nH]n2)cc1Cl` [Compound 84], in series [4], the 50% inhibitory concentration (IC50) was in the range of 1000 to 10000 nM.
For the compound `Nc1cc(-c2nc3ccccc3[nH]2)n[nH]1` [Compound 32], the 50% inhibitory concentration (IC50) in series [4] is greater than 10000 nM.
For `CC(=O)N1CCN(c2ccc(C(=O)Nc3cc(-c4nc5ccccc5[nH]4)n[nH]3)cc2)CC1` [Compound 35], in series [1], the intrinsic clearance (microsomal CLint) at 0.75 h, 0.3 μM was found to be 70 µL/min/mg; the “% remaining at 45 min” value is listed as 44%; the “metabolic stability compared with Compound 10 (Langlet et al.)” value is recorded as “significantly more stable”. Also, the IC50 in series [4] is less than 1000 nM.
As to `COc1ccc(C(=O)Nc2cc(-c3nc4c(F)cccc4[nH]3)[nH]n2)cc1Cl` [Compound 73], the “% remaining at 45 min” value was 31% in series [5] and 13% in series [6]. Besides, the “metabolic stability compared with Compound 9 (Langlet et al.)” value in series [5] is “significantly more stable”. The microsomal CLint at 0.75 h, 0.3 μM in series [5] (dog, microsomes, pH 7.4) was 104 µL/min/mg; in series [6] (human, microsomes, pH 7.4) it was 184 µL/min/mg.
Take `COc1ccc(C(=O)Nc2cc(-c3nc4ccccc4[nH]3)n[nH]2)cc1Cl` [Compound 1, reference compound]: the “% remaining at 45 min” value in series [5] was 12%; in series [6], 3.2%. Further, the microsomal CLint at 0.75 h, 0.3 μM in series [5] (dog, microsomes, pH 7.4) came out at 185 µL/min/mg; in series [6] (human, microsomes, pH 7.4), 306 µL/min/mg.
As for `O=C(Nc1cc(-c2nc3ccccc3[nH]2)n[nH]1)c1ccc(O)c(Cl)c1` [Compound 24], the “% remaining at 45 min” value in series [5] is on record as 88%; in series [6], 93%. Further, in series [5], the “metabolic stability compared with Compound 9 (Langlet et al.)” value is given as “significantly more stable”. Besides, the microsomal CLint at 0.3 μM was less than 20 µL/min/mg in series [5] (dog, microsomes, pH 7.4) and less than 20 µL/min/mg in series [6] (human, microsomes, pH 7.4).
For `COc1ccc(C(=O)Nc2cc(-c3nc4c(C(F)(F)F)cccc4[nH]3)[nH]n2)cc1Cl` [Compound 85], the IC50 in series [4] was less than 1000 nM.
Turning to `COc1ccc(C(=O)Nc2cc(-c3nc4cc(C(F)(F)F)ccc4[nH]3)[nH]n2)cc1Cl` [Compound 86], the IC50 in series [4] is less than 1000 nM.
